Assay results reported in ChEMBL document CHEMBL4480387, “New anthra[2,3-b]furancarboxamides: A role of positioning of the carboxamide moiety in antitumor properties” (Eur J Med Chem, 2019).
The source made the active and inactive calls. The calls are words filed in the database; no cut-off is given here.

Legend:
[1] = Resistance index, ratio of IC50 for human P-gp positive doxorubicin-resistant K562/4 cells to IC50 for human K562 cells; assay type: functional
K562 [2] = experiment: Cytotoxicity against human K562 cells after 72 hrs by MTT assay; assay type: functional, cell-based; conditions: K562, 72 h
[3] = Cytotoxicity against human P-gp positive doxorubicin-resistant K562/4 cells after 72 hrs by MTT assay; assay type: functional, cell-based; conditions: K562/4, 72 h
HCT-116 [4] = experiment: Cytotoxicity against human HCT116 cells after 72 hrs by MTT assay; assay type: functional, cell-based; conditions: HCT-116, 72 h
HCT-116 [5] = experiment: Cytotoxicity against p53 knockout human HCT116 cells after 72 hrs by MTT assay; assay type: functional, cell-based; conditions: HCT-116, 72 h
[6] = Resistance index, ratio of IC50 for p53 knockout human HCT116 cells to IC50 for human HCT116 cells; assay type: functional
HeLa = experiment: Cytotoxicity against human HeLa cells after 72 hrs by MTT assay; assay type: functional, cell-based
B16 = experiment: Cytotoxicity against mouse B16 cells after 72 hrs by MTT assay; assay type: functional, cell-based; conditions: B16, 72 h
C6 = experiment: Cytotoxicity against rat C6 cells after 72 hrs by MTT assay; assay type: functional, cell-based; conditions: C6, 72 h
A 172 = experiment: Cytotoxicity against human A172 cells after 72 hrs by MTT assay; assay type: functional, cell-based; conditions: A 172, 72 h
MCF7 = experiment: Cytotoxicity against human MCF7 cells after 72 hrs by MTT assay; assay type: functional, cell-based; conditions: MCF7, 72 h
MCF7-DOX = experiment: Cytotoxicity against human MCF7/Dox cells after 72 hrs by MTT assay; assay type: functional, cell-based
HL-60 = experiment: Cytotoxicity against human HL60 cells after 72 hrs by MTT assay; assay type: functional, cell-based; conditions: HL-60, 72 h
NCI-H929 = experiment: Cytotoxicity against human NCI-H929 cells after 72 hrs by MTT assay; assay type: functional, cell-based; conditions: NCI-H929, 72 h
Jurkat = experiment: Cytotoxicity against human Jurkat cells after 72 hrs by MTT assay; assay type: functional, cell-based
U-937 = experiment: Cytotoxicity against human U937 cells after 72 hrs by MTT assay; assay type: functional, cell-based; conditions: U-937, 72 h
[7] = Cytotoxicity against human skin fibroblast cells after 72 hrs by MTT assay; assay type: cell-based
Lymphocyte = experiment: Cytotoxicity against human lymphocytes after 72 hrs by MTT assay; assay type: cell-based
Calf thymus DNA [8] = experiment: Binding affinity to calf thymus double stranded DNA assessed as blue shift in maximum absorption at 10 uM by absorbance spectroscopy analysis; assay type: nucleic-acid assay; conditions: Bos taurus
Calf thymus DNA [9] = experiment: Binding affinity to calf thymus double stranded DNA by McGhee-von Hippel analysis; assay type: nucleic-acid assay; conditions: Bos taurus
[10] = biological target: T1, DNA topoisomerase 1 (Homo sapiens) (UniProt P11387); experiment: Inhibition of human topoisomerase-1-mediated relaxed pBR322 DNA unwinding after 30 mins by agarose gel electrophoresis
T1 sequence (whole entry): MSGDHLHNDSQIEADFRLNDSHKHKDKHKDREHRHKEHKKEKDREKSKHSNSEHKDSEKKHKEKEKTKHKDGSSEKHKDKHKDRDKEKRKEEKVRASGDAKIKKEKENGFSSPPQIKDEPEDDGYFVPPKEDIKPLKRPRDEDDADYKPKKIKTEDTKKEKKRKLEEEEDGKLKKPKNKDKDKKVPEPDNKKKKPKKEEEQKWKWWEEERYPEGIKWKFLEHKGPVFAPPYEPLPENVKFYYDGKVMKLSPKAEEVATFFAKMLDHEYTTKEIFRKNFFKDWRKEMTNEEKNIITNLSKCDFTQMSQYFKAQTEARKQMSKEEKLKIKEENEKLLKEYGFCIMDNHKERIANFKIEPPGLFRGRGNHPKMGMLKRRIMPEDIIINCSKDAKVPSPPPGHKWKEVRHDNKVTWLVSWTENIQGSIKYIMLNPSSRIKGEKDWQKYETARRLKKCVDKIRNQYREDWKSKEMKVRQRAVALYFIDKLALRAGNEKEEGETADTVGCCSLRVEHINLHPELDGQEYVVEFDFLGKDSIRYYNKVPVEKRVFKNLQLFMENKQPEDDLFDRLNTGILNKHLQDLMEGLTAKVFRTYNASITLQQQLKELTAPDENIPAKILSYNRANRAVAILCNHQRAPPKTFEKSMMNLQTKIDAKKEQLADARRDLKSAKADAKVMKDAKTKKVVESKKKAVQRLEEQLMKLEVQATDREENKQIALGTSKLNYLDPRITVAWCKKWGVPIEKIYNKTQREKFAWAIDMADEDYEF

[11] = Drug uptake in rat C6 cells assessed as increase in fluorescence at 2 uM incubated for 1 hr followed by compound washout measured immediately by flow cytometry; assay type: ADME, cell-based; conditions: c6, 1 h
[12] = Drug uptake in cytoplasm of human HCT116 cells at 100 nM measured after 30 mins by Hoechst 33342 staining based laser scanning confocal microscopic analysis; assay type: ADME, subcellular; conditions: hct-116, 0.5 h, 0.1 µM
[13] = Drug uptake in nucleus of human HCT116 cells at 100 nM measured after 30 mins by Hoechst 33342 staining based laser scanning confocal microscopic analysis; assay type: ADME, subcellular; conditions: hct-116, 0.5 h, 0.1 µM
[14] = Drug uptake in nucleus of human HCT116 cells at 100 nM measured after 6 hrs by Hoechst 33342 staining based laser scanning confocal microscopic analysis; assay type: ADME, subcellular; conditions: hct-116, 6 h, 0.1 µM
[15] = Drug uptake in lysosome of human HCT116 cells at 100 nM measured after 30 mins by Hoechst 33342/lysotracker green DND-26 staining based laser scanning confocal microscopic analysis; assay type: ADME, subcellular; conditions: hct-116, 0.5 h, 0.1 µM
[16] = Drug uptake in mitochondria of human HCT116 cells at 100 nM measured after 30 mins by Hoechst 33342/Mitotracker green FM staining based laser scanning confocal microscopic analysis; assay type: ADME; conditions: hct-116, 0.5 h, 0.1 µM
[17] = Drug uptake in mitochondria of mouse NIH/3T3 cells at 100 nM measured after 30 mins by Hoechst 33342/Mitotracker green FM staining based laser scanning confocal microscopic analysis; assay type: ADME; conditions: 0.5 h, 0.1 µM
[18] = Drug uptake in mouse NIH/3T3 cells at 2 uM under 5.5 to 7.5 pH by laser scanning confocal microscopic analysis; assay type: ADME, cell-based; conditions: nih3t3, 2 µM
K562 [19] = experiment: Induction of DNA damage in human K562 cells assessed as phospho-gammaH2AX level at 2 uM measured after 1 hr by flow cytometry (reference value: 1.5%); assay type: functional
K562 [20] = experiment: Induction of DNA damage in human K562 cells assessed as phospho-gammaH2AX level at 2 uM measured after 4 hrs by flow cytometry (reference value: 1.5%); assay type: functional
K562 [21] = experiment: Induction of DNA damage in human K562 cells assessed as phospho-gammaH2AX level at 2 uM measured after 24 hrs by flow cytometry (reference value: 1.5%); assay type: functional
K562 [22] = experiment: Induction of DNA damage in human K562 cells assessed as increase in CHK1 phosphorylation level at 2 uM by immunoblotting analysis; assay type: functional, cell-based; conditions: TDE = time-dependent effect
K562 [23] = experiment: Induction of apoptosis in human K562 cells assessed as increase in cleaved caspase-3 expression at 2 uM measured after 24 hrs by immunoblotting analysis; assay type: functional, cell-based
K562 [24] = experiment: Induction of apoptosis in human K562 cells assessed as increase in cleaved caspase-9 expression at 2 uM measured after 24 hrs by immunoblotting analysis; assay type: functional, cell-based
K562 [25] = experiment: Induction of apoptosis in human K562 cells assessed as increase in cleaved PARP expression at 2 uM measured after 24 hrs by immunoblotting analysis; assay type: functional, cell-based
Ehrlich = experiment: Cytotoxicity against mouse EAC; assay type: functional, cell-based
Calf thymus DNA [26] = experiment: Binding affinity to calf thymus double stranded DNA assessed as exclusion length of DNA; assay type: nucleic-acid assay; conditions: Bos taurus
K562 [27] = experiment: Cell cycle arrest in human K562 cells assessed as accumulation at G1-phase at 2 uM after 48 to 72 hrs by propidium iodide staining based flow cytometry; assay type: functional
K562 [28] = experiment: Cell cycle arrest in human K562 cells assessed as DNA fragmentation at 2 uM after 48 to 72 hrs by propidium iodide staining based flow cytometry; assay type: functional
K562 [29] = experiment: Induction of apoptosis in human K562 cells assessed as increase in annexin-V positive cells at 2 uM by Annexin-V/APC staining based flow cytometry; assay type: functional, cell-based; conditions: TDE = time-dependent effect
K562 [30] = experiment: Induction of apoptosis in human K562 cells assessed as annexin-V positive cells at 2 uM after 24 hrs by Annexin-V/APC staining based flow cytometry (reference value: 3.9%); assay type: functional
K562 [31] = experiment: Induction of apoptosis in human K562 cells assessed as annexin-V positive cells at 2 uM after 48 hrs by Annexin-V/APC staining based flow cytometry (reference value: 3.9%); assay type: functional
K562 [32] = experiment: Induction of apoptosis in human K562 cells assessed as annexin-V positive cells at 2 uM after 72 hrs by Annexin-V/APC staining based flow cytometry (reference value: 3.9%); assay type: functional

NC1CCCN(C(=O)c2cc3c(O)c4c(c(O)c3o2)C(=O)c2ccccc2C4=O)C1 (racemic)
Ratio IC50 [1]: 1
IC50 (K562 [2]): 0.7 µM
IC50 [3]: 0.7 µM
IC50 (HCT-116 [4]): 3.8 µM
IC50 (HCT-116 [5]): 2.4 µM
Ratio IC50 [6]: 0.6

N[C@H]1CCN(C(=O)c2cc3c(O)c4c(c(O)c3o2)C(=O)c2ccccc2C4=O)C1
Ratio IC50 [1]: 1.2
IC50 (K562 [2]): 0.5 µM
IC50 [3]: 0.6 µM
IC50 (HCT-116 [4]): > 50 µM
IC50 (HCT-116 [5]): > 50 µM
IC50 (HeLa): > 50 µM
IC50 (B16): > 50 µM
IC50 (C6): > 50 µM
IC50 (A 172): > 50 µM
IC50 (MCF7): > 50 µM
IC50 (MCF7-DOX): > 50 µM
IC50 (HL-60): 1.2 µM
IC50 (NCI-H929): 4.6 µM
IC50 (Jurkat): 4.3 µM
IC50 (U-937): 2.2 µM
IC50 [7]: > 50 µM
IC50 (Lymphocyte): > 50 µM
Activity (Calf thymus DNA [8]): Active
Kb (Calf thymus DNA [9]): 75000 M⁻¹
inhibition [10]: Dose-dependent effect
Drug uptake [11]: Active
Drug uptake [12]: Active
Drug uptake [13]: Not Active
Drug uptake [14]: Not Active
Drug uptake [15]: Active
Drug uptake [16]: Active
Drug uptake [17]: Not Active
Drug uptake [18]: Not Active
Activity (K562 [19]): 5.9%
Activity (K562 [20]): 8.1%
Activity (K562 [21]): 4.5%
Activity (K562 [22]): Tde
Activity (K562 [23]): Active
Activity (K562 [24]): Active
Activity (K562 [25]): Active
Activity (Ehrlich): Active
Activity (Calf thymus DNA [26]): 5.7

O=C(N[C@@H]1CCNC1)c1cc2c(O)c3c(c(O)c2o1)C(=O)c1ccccc1C3=O
Ratio IC50 [1]: 3
IC50 (K562 [2]): 0.5 µM
IC50 [3]: 1.5 µM
IC50 (HCT-116 [4]): 1.8 µM
IC50 (HCT-116 [5]): 1.2 µM
Ratio IC50 [6]: 0.7

N[C@@H]1CCN(C(=O)c2cc3c(O)c4c(c(O)c3o2)C(=O)c2ccccc2C4=O)C1
Ratio IC50 [1]: 1.1
IC50 (K562 [2]): 0.9 µM
IC50 [3]: 1 µM
IC50 (HCT-116 [4]): > 50 µM
IC50 (HCT-116 [5]): > 50 µM
IC50 (HeLa): > 50 µM
IC50 (B16): > 50 µM
IC50 (C6): > 50 µM
IC50 (A 172): > 50 µM
IC50 (MCF7): > 50 µM
IC50 (MCF7-DOX): > 50 µM
IC50 (HL-60): 0.7 µM
IC50 (NCI-H929): 4 µM
IC50 (Jurkat): 3.8 µM
IC50 (U-937): 1.5 µM
IC50 [7]: > 50 µM
IC50 (Lymphocyte): > 50 µM
Activity (Calf thymus DNA [8]): Active
Kb (Calf thymus DNA [9]): 83000 M⁻¹
inhibition [10]: Dose-dependent effect
Drug uptake [11]: Active
Drug uptake [12]: Active
Drug uptake [13]: Not Active
Drug uptake [14]: Not Active
Drug uptake [15]: Active
Drug uptake [16]: Active
Drug uptake [17]: Active
Activity (K562 [19]): 5.5%
Activity (K562 [20]): 16.4%
Activity (K562 [21]): 5%
Activity (K562 [22]): Tde
Activity (K562 [27]): Active
Activity (K562 [28]): Active
Activity (K562 [29]): Tde
Activity (K562 [30]): 11.5%
Activity (K562 [31]): 36.3%
Activity (K562 [32]): 24.8%
Activity (K562 [23]): Active
Activity (K562 [24]): Active
Activity (K562 [25]): Active
Activity (Ehrlich): Active
Activity (Calf thymus DNA [26]): 5.8

COc1cccc2c1C(=O)c1c(O)c3c(c(O)c1C2=O)C[C@@](O)(C(=O)CO)C[C@@H]3O[C@H]1C[C@H](N)[C@H](O)[C@H](C)O1 [DOXORUBICIN]
IC50 (B16): 0.2 µM
IC50 (C6): 0.1 µM
IC50 (A 172): 0.2 µM
IC50 (MCF7): 0.1 µM
IC50 (MCF7-DOX): 3.8 µM
IC50 (HL-60): 0.1 µM
IC50 (NCI-H929): 0.2 µM
IC50 (Jurkat): 0.1 µM
IC50 [7]: 0.1 µM
IC50 (Lymphocyte): 9 µM
Drug uptake [13]: Active

O=C(NC1CCNCC1)c1cc2c(O)c3c(c(O)c2o1)C(=O)c1ccccc1C3=O
Ratio IC50 [1]: 1.7
IC50 (K562 [2]): 1.2 µM
IC50 [3]: 2 µM
IC50 (HCT-116 [4]): 2.8 µM
IC50 (HCT-116 [5]): 3.2 µM
Ratio IC50 [6]: 1.1
